{
  "source": "patent US8119661B2",
  "about": "“Piperidine derivatives and their use as muscarinic receptor modulators” (AstraZeneca AB, priority 2007, dated 2012)",
  "tested_on": "SNL rats (heat hyperalgesia)",
  "experiment": "Rat SNL heat hyperalgesia assay",
  "assay_type": "in vivo",
  "conditions": "sc, male Sprague Dawley SNL rats, paw withdrawal latency, morphine s.c. 30 min before testing, example 2 per os 60 min before testing, combination ratio example 2:morphine 1:1.56",
  "protocol": "Rats undergo spinal nerve ligation surgery as described in Kim and Chung (1992) (reference 1). Briefly, rats are anesthetized with isoflurane, the left L5 and L6 are isolated and tightly ligated with 4-0 silk thread. The wound is closed by suturing and applying tissue adhesive. Compound testing is performed at day 9 to day 36 post-surgery.\nFor behavioral testing, the animals are acclimatized to the test room environment for a minimum of 30 min. In order to assess the degree of hyperalgesia, the animals are placed on a glass surface (maintained at 30° C.), and a heat-source is focused onto the plantar surface of the left paw. The time from the initiation of the heat until the animal withdraws the paw is recorded. Each animal is tested twice (with an interval of 10 min between the two tests). A decrease in Paw Withdrawal Latency (PWL, average of the two tests) relative to naïve animals indicates a hyperalgesic state. The rats with a PWL of at least 2 seconds less than average PWL of Naïve group are selected for compound testing. […]\nIn order to assess the degree of heat hyperalgesia, the rats were individually placed in Plexiglas boxes on the glass surface (maintained at 30° C.) of a paw thermal stimulator system (Model 390, series 8, IITC Life Science, Woodland Hills, USA) and allowed to acclimate for 30 min. […] Paw withdrawal latencies (PWLs) were calculated as the mean of the two values.",
  "data": [
    {"compound": "CC(C)OC(=O)N1CCC(C)(N2CCC(N3C(=O)N[C@H]4CCCC[C@@H]43)CC2)CC1", "note": "[Example 02, Propan-2-yl 4-[4-[(3aS,7aS)-2-oxo-3a,4,5,6,7,7a-hexahydro-3H-benzoimidazol-1-yl]-1-piperidyl]-4-methyl-piperidine-1-carboxylate]", "values": [
      {"measurement": "ED50", "value": 2.4, "unit": "µmol/kg"}
    ]}
  ]
}
